Measurements published in patent publication US20170137426A1, “HETEROCYCLIC COMPOUNDS AS AXL INHIBITORS” (CHANGZHOU JIEKAI PHARMATECH CO., LTD., priority 2014, published 2017).

What follows are molecules tested against T1, human AXL (Homo sapiens, UniProt P30530) (assay: AXL enzymatic assay (LanthaScreen TR-FRET)). Conditions: recombinant his-tagged catalytic domain (aa 473-894), 18 μM ATP (around Km), 200 nM Poly GT substrate, 1 h reaction.
T1 construct: his-tagged catalytic domain (amino acids 473-894) from insect cells; His tag; purchased Invitrogen PV3971; host or cells: insect cells
T1 sequence (P30530 473-894): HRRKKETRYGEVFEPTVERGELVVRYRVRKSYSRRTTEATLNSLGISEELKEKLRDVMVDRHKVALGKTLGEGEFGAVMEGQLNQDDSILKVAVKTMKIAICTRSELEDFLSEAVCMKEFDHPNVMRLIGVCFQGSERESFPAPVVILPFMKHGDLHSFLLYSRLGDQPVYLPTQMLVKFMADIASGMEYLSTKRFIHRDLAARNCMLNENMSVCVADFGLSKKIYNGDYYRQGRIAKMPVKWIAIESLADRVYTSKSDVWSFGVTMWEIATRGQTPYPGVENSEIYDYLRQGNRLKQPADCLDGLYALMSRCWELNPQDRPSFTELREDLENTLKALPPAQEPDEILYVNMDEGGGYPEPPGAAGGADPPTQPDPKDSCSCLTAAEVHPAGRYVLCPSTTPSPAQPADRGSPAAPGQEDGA
Assay type: biochemical
Protocol: Example 3: AXL Enzymatic Assay
Compounds were tested in a LanthaScreen™ time-resolved fluorescence energy transfer (TR-FRET) enzymatic assay from Invitrogen. The assay used human AXL (Invitrogen, Cat. PV3971) recombinantly expressed his-tagged catalytic domain (amino acids 473-894) from insect cells. The substrate was fluorescein-labeled Poly GT (Invitrogen, Cat. PV3610). Test compounds were prepared and diluted in DMSO in 3-fold serial dilutions to 100× of the final testing concentrations. The compounds were then further diluted to 4× by the kinase reaction buffer (Invitrogen, Cat. PV3189). The enzymatic reaction for compound testing was performed in a white 384-well polypropylene plate (Packard, Cat. 6005214) with a total reaction volume of 10 μl containing 200 ng/ml AXL, 200 nM substrate, and 18 μM ATP that is around its Km. The assay started with loading 2.5 μl of AXL diluted in kinase reaction buffer to wells, followed by addition of equal volume of 4× compounds for 15-min incubation at the room temperature for pre-treatment. The enzymatic reaction was initiated by addition of 5 μl of mixture of the substrate and ATP prepared in kinase reaction buffer. After one hour reaction, 10 μl mixture of EDTA (final 10 mM) and terbium-labeled anti-PY20 antibody (final 2 nM) (Invitrogen, Cat. PV3552) prepared in TR-FRET antibody dilution buffer (Invitrogen, Cat. PV3574) was added to stop the enzymatic reaction and produce TR-FRET signals. After 30 minutes of incubation at room temperature, the plate was read in Tecan Infinite F200 Pro with the following settings: Excitation 340 nm (30)/Emission1 495 nm (10)/Emission2 520 nm (25). The TR-FRET values were dimensionless numbers that were calculated as the ratio of the acceptor ([…]) signal to the donor (Terbium) signal. Percent of control was calculated as the percentage of compound-treated vs 1% DMSO vehicle-treated. The dose-response curves were generated and the IC50s were calculated by nonlinear sigmoid curve fitting using GraphPad Prism.

IC50 [nM] | SMILES
25 to 50 | CC(C)Oc1ccccc1-n1ccc2cnc(Nc3ccc4c(c3)CCC(N3CCCC3)CC4)nc21 (stereo not drawn) [Compound 1, 7-(2-isopropoxyphenyl)-N-(7-(pyrrolidin-1-yl)-6,7,8,9-tetrahydro-5H-benzo[7]annulen-2-yl)-7H-pyrrolo[2,3-d]pyrimidin-2-amine]
700 to 800 | CC(C)Oc1ccccc1-n1ccc2cnc(Nc3cnn(C4CCN(C)CC4)c3)nc21 [Compound 2, 7-(2-isopropoxyphenyl)-N-(1-(1-methylpiperidin-4-yl)-1H-pyrazol-4-yl)-7H-pyrrolo[2,3-d]pyrimidin-2-amine]
50 to 200 | CC(C)Oc1cccc(-n2ccc3cnc(Nc4ccc5c(c4)CCC(N4CCCC4)CC5)nc32)c1 (stereo not drawn) [Compound 3, 7-(3-isopropoxyphenyl)-N-(7-(pyrrolidin-1-yl)-6,7,8,9-tetrahydro-5H-benzo[7]annulen-2-yl)-7H-pyrrolo[2,3-d]pyrimidin-2-amine]
200 to 400 | c1ccc(-n2ccc3cnc(Nc4ccc5c(c4)CCC(N4CCCC4)CC5)nc32)c(OC2CCCCC2)c1 (stereo not drawn) [Compound 4, 7-(2-(cyclohexyloxy)phenyl)-N-(7-(pyrrolidin-1-yl)-6,7,8,9-tetrahydro-5H-benzo[7]annulen-2-yl)-7H-pyrrolo[2,3-d]pyrimidin-2-amine]
700 to 800 | c1ccc(Oc2ccccc2-n2ccc3cnc(Nc4ccc5c(c4)CCC(N4CCCC4)CC5)nc32)cc1 (stereo not drawn) [Compound 5, 7-(2-phenoxyphenyl)-N-(7-(pyrrolidin-1-yl)-6,7,8,9-tetrahydro-5H-benzo[7]annulen-2-yl)-7H-pyrrolo[2,3-d]pyrimidin-2-amine]
< 25 | Cc1ccccc1Oc1ccccc1-n1ccc2cnc(Nc3ccc4c(c3)CCC(N3CCCC3)CC4)nc21 (stereo not drawn) [Compound 6, N-(7-(pyrrolidin-1-yl)-6,7,8,9-tetrahydro-5H-benzo[7]annulen-2-yl)-7-(2-(o-tolyloxy)phenyl)-7H-pyrrolo[2,3-d]pyrimidin-2-amine]
25 to 50 | CC(C)Oc1ccc(-n2ccc3cnc(Nc4ccc5c(c4)CCC(N4CCCC4)CC5)nc32)cc1 (stereo not drawn) [Compound 7, 7-(4-isopropoxyphenyl)-N-(7-(pyrrolidin-1-yl)-6,7,8,9-tetrahydro-5H-benzo[7]annulen-2-yl)-7H-pyrrolo[2,3-d]pyrimidin-2-amine]
> 1000 | c1ccc(-c2ccc(-n3ccc4cnc(Nc5ccc6c(c5)CCC(N5CCCC5)CC6)nc43)cc2)cc1 (stereo not drawn) [Compound 8, 7-([1,1′-biphenyl]-4-yl)-N-(7-(pyrrolidin-1-yl)-6,7,8,9-tetrahydro-5H-benzo[7]annulen-2-yl)-7H-pyrrolo[2,3-d]pyrimidin-2-amine]
50 to 200 | COc1ccc(-n2ccc3cnc(Nc4ccc5c(c4)CCC(N4CCCC4)CC5)nc32)c(OC(C)C)c1 (stereo not drawn) [Compound 9, 7-(2-isopropoxy-4-methoxyphenyl)-N-(7-(pyrrolidin-1-yl)-6,7,8,9-tetrahydro-5H-benzo[7]annulen-2-yl)-7H-pyrrolo[2,3-d]pyrimidin-2-amine]
< 25 | CC(C)Oc1cc(Cl)ccc1-n1ccc2cnc(Nc3ccc4c(c3)CCC(N3CCCC3)CC4)nc21 (stereo not drawn) [Compound 10, 7-(4-chloro-2-isopropoxyphenyl)-N-(7-(pyrrolidin-1-yl)-6,7,8,9-tetrahydro-5H-benzo[7]annulen-2-yl)-7H-pyrrolo[2,3-d]pyrimidin-2-amine]
> 1000 | CC(C)NC(=O)c1ccccc1-n1ccc2cnc(Nc3ccc4c(c3)CCC(N3CCCC3)CC4)nc21 (stereo not drawn) [Compound 11, N-isopropyl-2-(2-((7-(pyrrolidin-1-yl)-6,7,8,9-tetrahydro-5H-benzo[7]annulen-2-yl)amino)-7H-pyrrolo[2,3-d]pyrimidin-7-yl)benzamide]
25 to 50 | Cc1ccccc1-c1ccc(-n2ccc3cnc(Nc4ccc5c(c4)CCC(N4CCCC4)CC5)nc32)cc1 (stereo not drawn) [Compound 12, 7-(2′-methyl-[1,1′-biphenyl]-4-yl)-N-(7-(pyrrolidin-1-yl)-6,7,8,9-tetrahydro-5H-benzo[7]annulen-2-yl)-7H-pyrrolo[2,3-d]pyrimidin-2-amine]
200 to 400 | CC(C)Oc1cccnc1-n1ccc2cnc(Nc3ccc4c(c3)CCC(N3CCCC3)CC4)nc21 (stereo not drawn) [Compound 13, 7-(3-isopropoxypyridin-2-yl)-N-(7-(pyrrolidin-1-yl)-6,7,8,9-tetrahydro-5H-benzo[7]annulen-2-yl)-7H-pyrrolo[2,3-d]pyrimidin-2-amine]
200 to 400 | CC(C)Oc1cc(-c2ccccc2)ccc1-n1ccc2cnc(Nc3ccc4c(c3)CCC(N3CCCC3)CC4)nc21 (stereo not drawn) [Compound 14, 7-(3-isopropoxy-[1,1′-biphenyl]-4-yl)-N-(7-(pyrrolidin-1-yl)-6,7,8,9-tetrahydro-5H-benzo[7]annulen-2-yl)-7H-pyrrolo[2,3-d]pyrimidin-2-amine]
200 to 400 | CC(C)Oc1ccccc1-n1ccc2cnc(Nc3ccc4c(c3)CCN(C)CC4)nc21 [Compound 15, N-(7-(2-isopropoxyphenyl)-7H-pyrrolo[2,3-d]pyrimidin-2-yl)-3-methyl-2,3,4,5-tetrahydro-1H-benzo[d]azepin-7-amine]
